The values that follow come from patent US20240002350A1, “PROTEIN AND LIPID THERAPEUTIC TARGETS” (UNIVERSITY OF PITTSBURGH-OF THE COMMONWEALTH SYSTEM OF …, priority 2020, published 2024).

Read-outs that look alike come from different tables or passages of the source.

One experiment deals with neurons. Briefly: Severe mechanical stretch injury in neurons. The experiment is classed as cell-based, rat. Particulars: 3-4 psi; Fer-1 0.4 μM, Triacsin C 10 μM, baicalein 5 μM. The procedure: Mean+SD, N=4/group, *p<0.05 vs 0 h. […] Mean±SD, N=3-4/group, *p<0.05 vs control, #p<0.05 vs vehicle. […] Mean+SD, N=4/group, *p<0.05 vs vehicle.
(§1) Time course studies (0, 4, 8, 24 and 72 h) of TBI-induced changes in i) PE oxidation (oxidative lipidomics); ii) expression and activity of 15LOX, PEBP1, ACSL4, LPCAT3, iPLA2β and GPX4 (western blot); iii) formation of 15LOX/PEBP1 complexes (dual object recognition); and iv) GSH levels (fluorescent assay) will be performed as follows. An established model of in vitro TBI, severe mechanical stretch injury in primary cortical neurons, can be used. In brief, cortical neurons are cultured on 0.05% poly-D-lysine hydrobromide coated silicone substrate wells, and subjected to a computer controlled quantifiable mechanical insult by displacing the silicone substrate over a hollowed platform. In vivo TBI is induced by severe CCI (6-mm impactor tip, velocity of ±0.2 m/secs, deformation depth of 2.5 mm, impact duration of 50 msecs) to left parietal cortex in male and female PND 17 rats. To maximize rigor and reproducibility, animals are assigned to either sham (anesthesia and craniotomy) or CCI groups by block randomization. To ensure appropriate sample size for robustness, power analyses are performed in each experimental context. A sample size of 5 is preferred to detect a 25% difference in PE-OOH between CCI and control based on standard deviation observed in the experiments with an alpha of 0.05 and power of 0.80. Group assignments are blinded to the investigators who perform biochemical and histological endpoints. Statistical differences are analyzed using one-way ANOVA with post-hoc comparisons between groups if overall p<0.05 as appropriate. To address biological variability, both sexes are included.

Another experiment has as its system PND17 rats. Briefly: Controlled cortical impact (CCI) TBI model in PND17 rats. The class given is in vivo, rat. The procedure: as §1
Histological outcome assessment. Brains are quantitatively analyzed for total number of specific cell types and lesion volume using unbiased stereology as described. Diagnostic of ferroptosis in vivo are: 1) accumulation of doubly and triply oxygenated AA-PE species; 2) increased ACSL4; 3) decreased GPX4 activity or deficiency of GSH; 4) increased activity and expression of 15LOX; and 5) high levels of 15LOX-PEBP1 co-localization detectable by dual object recognition. […] TUNEL staining is used to quantify cell death. TUNEL is commonly used to detect apoptotic cells. However, cells undergoing other types of regulated death, including ferroptosis, are also TUNEL positive. In order to determine the apoptotic cell death, staining with cleaved caspase-3 antibody is performed.
Neurocognitive function is assessed by novel object recognition (NOR) and MWM (Morris Water Maze) tests. For NOR testing, rat is placed in a small enclosure with two similar objects and allowed to explore for a 35 min habituation phase. […] Percent time exploring original vs. novel object is recorded (2 min max). […] Visible platform performance and memory retention in a single probe trial on d17 are assessed. […]

In experiment [1] the test system is whole body irradiation (9.25Gy). Briefly: Survival after whole body irradiation. The class given is in vivo. Particulars: oxidant injury induced by ionizing radiation. The text has this: (§2) FIGS. 7A-7C show 15LOX/[…] complex inhibitor, NCGC00599973-01.
(§3) It was established that a change in substrate specificity of 15LOX is achieved upon complex formation with PEBP1 whereby structural rearrangements are mainly responsible for the selectivity and specificity leading to the formation of 15-HOO-AA-PE as the oxidation product. Thus, new selective anti-ferroptotic inhibitors of 15LOX/PEBP1 complex were designed. These inhibitors should not interfere with oxidation of free AA, DPA, DHA. […] The compound is a poor inhibitor of 15LOX alone with free AA as a substrate. […] Site 1 is at 15LOX/PEBP1 binding interface (binding energy −10.1 kcal/mol) and site 2 is at catalytic site (binding energy −8.9 kcal/mol).

Experiment [2] deals with ferroptosis triggered by RSL3 (GPX4 inhibition) or Erastin (GSH depletion) in cells. The experiment can be described thus: Suppression of ferroptosis triggered by RSL3 or Erastin in cells. The class given is cell-based. To be noted: read-out: half maximal activity, suppression of ferroptosis. The procedure:
as §2
FER.1 (500 nM) is positive control. Insert: Chemical formula of two of the compounds.
as §3

The subject of the next experiment is 15LOX/PEBP1. Briefly: Potency of 15LOX/PEBP1 inhibitors with anti-ferroptotic effect (Table 1). The class given is cell-based.
For a further experiment, the system named is 15LOX/PEBP1 complex. Briefly: Inhibition of activity of 15LOX/PEBP1 complex. The experiment is classed as biochemical.
Text: as §3
(§4) Development and testing of new compounds that inhibit 15LOX/PEBP1 complex activity. A combination of computational and experimental studies are used. […] Computer modeling considers specific features of organization of 15LOX/PEBP1 complexes and positioning of AA-PE as well as regio-specific oxygenation of AA-residues at 15th carbon. […] The compounds that inhibit cell death by at least 50% are then evaluated for their effects on AA-PE and AA oxidation by 15LOX/PEBP1 complex and 15LOX alone, respectively, by LC-MS. […]

Another experiment deals with 15LOX alone. Briefly: Inhibition of 15LOX alone with free AA as a substrate. To be noted: 20 μM. The experiment is classed as biochemical.
Text: as §3, §4

A further experiment concerns HOO-AA-PE. The experiment can be described thus: RSL3-induced accumulation of pro-ferroptotic HOO-AA-PE in vitro. The experiment is classed as cell-based.
Text: as §2, §3

Regarding `O=c1cc(-c2ccccc2)oc2cc(O)c(O)c(O)c12` [baicalein], the “cell death after severe mechanical stretch injury” value with neurons was “rescued”. In the experiment on PND17 rats (50 mg/kg i.p. 15 min after CCI), the AA-PE oxidation entry is “decreased”, the “functional deficits in MWM task” value was “attenuated” and the “hippocampal TUNEL positivity” value is on record as “attenuated”.

With `CCC/C=C/C/C=C/C=C/C=N/NN=O` [Triacsin C], in the experiment on neurons, the “cell death after severe mechanical stretch injury” value was “rescued”. Besides, in the experiment with PND17 rats (i.c.v. administration after CCI, 24 h post-CCI), the “neurodegeneration assessed by FJB positivity” value is “attenuated neurodegeneration”.

As for `Fc1cccc(-n2cc(-c3ccccc3)nc2SCc2ccc(C(F)(F)F)cc2)c1` [Compound 12, 1-(3-fluorophenyl)-4-phenyl-2-((4-(trifluoromethyl)benzyl)thio)-1H-imidazole], in experiment [1], the survival result is reported as “improves survival”. Moreover, the figures for the EC50 in experiment [2] (ferroptosis triggered by Erastin (GSH depletion) in cells) and in experiment [2] (ferroptosis triggered by RSL3 (GPX4 inhibition) in cells) were 140 nM and 175 nM, respectively. The Potency entry with 15LOX/PEBP1 was “++ (++ = 101-1000 nM)”. In addition, the “activity of 15LOX/PEBP1 complex” value with 15LOX/PEBP1 complex is listed as “inhibits activity”. Also, the “inhibition of 15LOX alone” value in the experiment with 15LOX alone was approximately 4.5%. Moreover, in the experiment on HOO-AA-PE, the “RSL3-induced accumulation of pro-ferroptotic HOO-AA-PE” value is on record as “suppresses”.
